Measurements reported in US4472400A, “Triazoloquinazolones having antihistaminic and bronchospasmolytic activity” (Roussel Uclaf, priority 1981, dated 1984).
Where two headings read alike, the source gives them in different places.

Assays:
[1] = system: histamine-induced bronchoconstriction; assay: Effects on histamine-induced bronchoconstriction in anaesthetised guinea pigs (KRG); format: in vivo, guinea pig (male Dunkin Hartley); conditions: Cavia porcellus, iv, read-out: KRG ED50 (effective dose required to reduce the histamine-induced constriction in lung air volume by 50%)
Description: (A) Effects on histamine-induced bronchoconstriction in anaesthetised guinea pigs (KRG)
Male Dunkin Hartley guinea-pigs weighing 350-650 grams were anaesthetised with urethane (25% w/v solution in distilled water at 7.0 ml/kg i.p). […] The animals were ventilated with a ventilatory pump, stroke volume of 8 ml and frequency of 52 to maintain a lung inflation pressure of 10 cm of H2 O. Blood pressure was measured via a cannula in the right carotid artery connected to a Statham blood pressure transducer and a Devices M2 recorder. The test compounds were administered via the cannulated left jugular vein and washed in with 0.1 ml of 0.9% w/w NaCl in distilled water. The test product was administered immediately before the histamine which was used as the agonist.
Respiratory changes were recorded via a differential transducer connected to an SE 905 transducer/converter which in turn was connected to a Devices M2 recorder.

[2] = system: histamine induced resistance change; assay: Measurement of Pulmonary Compliance and Resistance (RMG), histamine induced resistance change; format: in vivo, guinea pig (male Dunkin Hartley); conditions: Cavia porcellus, iv; anaesthetised guinea-pigs (Hypnorm/Valium), gallamine pre-treated; compound via right jugular vein; forced oscillation; read-out: RMG ED50 (effective dose required to reduce the histamine induced resistance change by 50%)
Description: (B) Measurement of Pulmonary Compliance and Resistance (RMG)
Male Dunkin Hartley guinea-pigs weighing between 400 and 650 g were anaesthetised with a combination of Hypnorm (1 ml/kg i.m.) and Valium (5 mg/kg i.p.). The trachea was cannulated and cannulae were inserted into the right jugular vein for the administration of compounds and left carotid artery for blood pressure measurement.
The animals were ventilated at a tidal volume of 6-8 ml and 10-12 cmH2 0 distension pressure was obtained. The respiratory rate was adjusted to 40-50/min. The animals were pre-treated with gallamine triethiodide (4 mg/kg i.v.) to maintain paralysis of respiratory muscles. Oxygen enrichment was applied to the inspiratory limb of the ventilator.
Respiratory resistance was measured by forced oscillation (Clay and Hughes 1980). Sinusodal wave forms of pressure were divided by flow at constant lung volumes to detect resistance changes. Sine wave production was achieved by a loudspeaker driven at 6-7 Hz through a pressure transducer, pneumotachograph and differential pressure transducer to detect pressure and flow contributions of the wave form. […] Drugs and analysis of activity were as described for the Konzett Rossler technique. Ref. Clay, T. P. and Hughes, J. M. B. (1980) J. Physiol. 308 427-437. The results given in Table V show the effective dose of each of the test compounds required to reduce the histamine induced resistance change by 50%.

[3] = anaesthetised guinea-pigs (urethane), test compound i.v. (jugular vein) immediately before histamine

SMILES | ED50 [1, 3] [mg/kg] | ED50 [2] [mg/kg] | ED50 [1] [mg/kg]
CCCn1c(=O)c2ccccc2n2c(CN3CCCCC3)nnc12.Cl.O [Example 1, 1-Piperidinomethyl-4-n-propyl[1,2,4]triazolo[4,3-a]quinazolin-5(4H)-one hydrochloride, monohydrate] | 0.12 |  | 
CCCn1c(=O)c2ccccc2n2c(CN(CC)CC)nnc12 [Example 2] |  | 0.5 | 
CCCn1c(=O)c2ccccc2n2c(CN3CCN(C)CC3)nnc12 [Example 3] | 5.28 |  | 
CCCn1c(=O)c2ccccc2n2c(CN3CCCC3)nnc12 [Example 4] | 2 |  | 
CCCn1c(=O)c2ccccc2n2c(CN3CCCCCC3)nnc12 [Example 5] | 0.096 | 0.3 | 
CCCn1c(=O)c2ccccc2n2c(CN3CCN(c4ccccc4)CC3)nnc12 [Example 6] | 5 |  | 
CCCn1c(=O)c2ccccc2n2c(CN3CC4CCC(CC4)C3)nnc12 [Example 7] |  |  | 0.33
CCCn1c(=O)c2ccccc2n2c(CN3CC(C)CC(C)C3)nnc12 (centres unmarked) [Example 8] | 1 |  | 
CCCNCc1nnc2n(CCC)c(=O)c3ccccc3n12 [Example 10] | 1.97 |  | 
CCCn1c(=O)c2ccccc2n2c(CNC3CCCCC3)nnc12 [Example 11] | 1.8 |  | 
CCCCNCc1nnc2n(CCC)c(=O)c3ccccc3n12 [Example 12] | 1.3 |  | 
CCCCN(CCCC)Cc1nnc2n(CCC)c(=O)c3ccccc3n12 [Example 14] | 2.9 |  | 
CC(C)n1c(=O)c2ccccc2n2c(CN3CCCCC3)nnc12 [Example 19] | 0.185 |  | 
CC(C)n1c(=O)c2ccccc2n2c(CN3CCCCCC3)nnc12 [Example 20] | 0.8 |  | 
CCCCn1c(=O)c2ccccc2n2c(CN3CCCCC3)nnc12 [Example 21, 1-piperidinomethyl-4-n-butyl[1,2,4]triazolo[4,3-a]quinazolin-5(4H)-one] | 0.11 | 0.15 | 
CCCCn1c(=O)c2ccccc2n2c(CN3CCCCCC3)nnc12 [Example 22, 1-(2,3,4,5,6,7,-hexahydroazepino)methyl-4-n-butyl[1,2,4]triazolo[4,3-a] quinazolin-5(4H)-one] | 0.84 |  | 
Cn1c(=O)c2ccccc2n2c(CN3CCCCC3)nnc12 [Example 23] | > 1 | 1 | 
Cn1c(=O)c2ccccc2n2c(CN3CCOCC3)nnc12 [Example 24] | 2.76 | 1.8 | 
CCOC(=O)N1CCN(Cc2nnc3n(C)c(=O)c4ccccc4n23)CC1 [Example 25] | 5 | 3.5 | 
CCN(CC)Cc1nnc2n(C)c(=O)c3ccccc3n12 [Example 26] | 3.75 | 1 | 
CN1CCN(Cc2nnc3n(C)c(=O)c4ccccc4n23)CC1 [Example 27] |  | 0.8 | 
CCn1c(=O)c2ccccc2n2c(CN3CCCCC3)nnc12 [Example 29, 1-piperidinomethyl-4-ethyl[1,2,4]triazolo[4,3-a]quinazolin-5 (4H)-one] | 0.35 | 0.5 | 
CCN(CC)Cc1nnc2n(CC)c(=O)c3ccccc3n12 [Example 30] |  | 1 | 
O=c1c2ccccc2n2c(CN3CCCCC3)nnc2n1-c1ccccc1 [Example 31] | 0.58 |  | 
C=CCn1c(=O)c2ccccc2n2c(CN3CCCCC3)nnc12 [Example 33, 4-allyl-1-piperidinomethyl[1,2,4]triazolo[4,3-a]quinazolin-5(4H)-one] | 0.31 |  | 
